“And” between values parts separate entries of the source, which are not always exact repeats. Equal values may be shown once.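 Dose response: 5 concentrations. Exposure: 48 h. Format: 96-well plates. Endpoint: linear interpolation; highest concentration if not reached. GI50 = concentration required for 50% inhibition of growth. TGI marks complete inhibition of growth.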
Experiments:
Assay in all cases: NCI-60 cell line screen, 48 h
NCI-H23 lung = system: NCI-H23 lung
HT29 colon = system: HT29 colon
UO-31 renal = system: UO-31 renal
HL-60(TB) leukemia = system: HL-60(TB) leukemia
HCT-116 colon = system: HCT-116 colon
ACHN renal = system: ACHN renal
HCT-15 colon = system: HCT-15 colon
RXF 393 renal = system: RXF 393 renal
MOLT-4 leukemia = system: MOLT-4 leukemia
SR leukemia = system: SR leukemia

## O=C1/C(=C/c2ccccc2)CN(C(=O)Oc2ccccc2)C/C1=C\c1ccccc1
NCI-H23 lung
  TGI: > 100 µM
HT29 colon
  TGI: > 100 µM
UO-31 renal
  TGI: 88.9 µM
HL-60(TB) leukemia
  TGI: 5.78 µM
HCT-116 colon
  TGI: 28.7 µM
ACHN renal
  TGI: > 100 µM
HCT-15 colon
  TGI: > 100 µM
RXF 393 renal
  TGI: 31.4 µM

## CCc1cc2c(c3[nH]ccc13)[C@@H](C)C[C@H]2C
NCI-H23 lung
  TGI: 37.8 µM
HT29 colon
  TGI: 43.8 µM
MOLT-4 leukemia
  TGI: 38.2 µM
UO-31 renal
  TGI: 32.3 µM
HL-60(TB) leukemia
  TGI: 48.8 µM
HCT-116 colon
  TGI: 30.1 µM
ACHN renal
  TGI: 30.9 µM
HCT-15 colon
  TGI: 30.9 µM
RXF 393 renal
  TGI: 28.7 µM

## CCOC(=O)CCC(NC(=O)c1ccc(Nc2nc3cc(N)cc(N)c3nc2-c2ccccc2)cc1)C(=O)OCC (stereo unspecified)
NCI-H23 lung
  GI50: 30.8 µM
  TGI: > 74.5 µM
HT29 colon
  GI50: 83.6 µM
  TGI: > 100 µM
MOLT-4 leukemia
  GI50: 9.9 µM
  TGI: > 27.2 µM
UO-31 renal
  GI50: > 46.6 µM
  TGI: > 87.1 µM
HL-60(TB) leukemia
  GI50: 9.62 µM
  TGI: 50.7 µM
HCT-116 colon
  GI50: > 38.7 µM
  TGI: > 71.6 µM
ACHN renal
  GI50: > 35.9 µM
  TGI: > 68.6 µM
HCT-15 colon
  GI50: > 48.1 µM
  TGI: > 100 µM
RXF 393 renal
  GI50: 43.4 µM
  TGI: > 92.6 µM

## COC(=O)C12CC(NC(=O)c3csc([C@@H](C[C@H](C(C)C)N(C)C(=O)[C@@H](NC(=O)[C@H]4CCCCN4C)C(C)C)OC(C)=O)n3)(C1)C2
NCI-H23 lung
  GI50: 0.0104 µM and 0.00333 µM
  TGI: > 33.3 µM
HT29 colon
  GI50: 0.00177 µM and 0.00333 µM
  TGI: 0.0396 µM
MOLT-4 leukemia
  GI50: 0.00688 µM and 0.00333 µM
  TGI: > 33.3 µM
UO-31 renal
  GI50: 0.0462 µM
HL-60(TB) leukemia
  GI50: 0.000345 µM
  TGI: 0.00302 µM
HCT-116 colon
  GI50: 0.00302 µM and 0.00333 µM
  TGI: > 33.3 µM
SR leukemia
  GI50: 0.000745 µM
ACHN renal
  GI50: 0.0174 µM
  TGI: > 33.3 µM
HCT-15 colon
  GI50: 0.0145 µM and 0.00801 µM
  TGI: > 33.3 µM

## CCN(CC)CCn1nc2c3c(cccc3c1=O)-c1ccccc1-2
NCI-H23 lung
  GI50: 1.82 µM
  TGI: 8.98 µM
HT29 colon
  GI50: 1.89 µM
  TGI: 13.2 µM
MOLT-4 leukemia
  GI50: 1.44 µM
  TGI: 8.46 µM
UO-31 renal
  GI50: 1.25 µM
  TGI: > 50 µM
HL-60(TB) leukemia
  GI50: 1.8 µM
  TGI: 9.22 µM
HCT-116 colon
  GI50: 1.78 µM
  TGI: > 50 µM
SR leukemia
  GI50: 0.896 µM
  TGI: 8.98 µM
HCT-15 colon
  GI50: 1.44 µM
  TGI: 13.3 µM
RXF 393 renal
  GI50: 2.05 µM
  TGI: 8.09 µM

## C/C(=N/OCCC(=O)O)C1CC1
NCI-H23 lung
  TGI: > 100 µM
HT29 colon
  TGI: > 100 µM
UO-31 renal
  TGI: > 100 µM
HL-60(TB) leukemia
  TGI: > 100 µM
HCT-116 colon
  TGI: > 100 µM
SR leukemia
  TGI: > 100 µM
ACHN renal
  TGI: > 100 µM
HCT-15 colon
  TGI: > 100 µM
RXF 393 renal
  TGI: > 100 µM

## Cc1ccc(S(=O)(=O)N/N=C/CN2C(=O)c3ccccc3C2=O)cc1
NCI-H23 lung
  TGI: > 100 µM
HT29 colon
  TGI: > 100 µM
MOLT-4 leukemia
  TGI: > 100 µM
UO-31 renal
  TGI: > 100 µM
HL-60(TB) leukemia
  TGI: > 100 µM
HCT-116 colon
  TGI: > 100 µM
SR leukemia
  TGI: > 100 µM
ACHN renal
  TGI: > 100 µM
HCT-15 colon
  TGI: > 100 µM

## O=C(O)CSc1nnc(COc2ccccc2)n1-c1ccccc1
NCI-H23 lung
  TGI: > 100 µM
HT29 colon
  TGI: > 100 µM
MOLT-4 leukemia
  TGI: > 100 µM
UO-31 renal
  TGI: > 100 µM
HL-60(TB) leukemia
  TGI: > 100 µM
HCT-116 colon
  TGI: > 100 µM
SR leukemia
  TGI: > 100 µM
ACHN renal
  TGI: > 100 µM
HCT-15 colon
  TGI: > 100 µM

## CC(C)C(NCc1c2ccccc2nc2ccccc12)C(=O)O (stereo unspecified)
NCI-H23 lung
  TGI: > 100 µM
HT29 colon
  TGI: > 100 µM
MOLT-4 leukemia
  TGI: 69.1 µM
HL-60(TB) leukemia
  TGI: 73.8 µM
HCT-116 colon
  TGI: > 100 µM
SR leukemia
  TGI: > 100 µM
ACHN renal
  TGI: > 100 µM
HCT-15 colon
  TGI: > 100 µM
RXF 393 renal
  TGI: > 100 µM

## CC(=O)[O-].CC(=O)[O-].CC(=O)[O-].CC(=O)[O-].CO.CO.CO.[Rh+2].[Rh+2].c1ccc(-c2ccccn2)nc1
NCI-H23 lung
  GI50: > 100 µM
  TGI: > 100 µM
HT29 colon
  GI50: > 100 µM
  TGI: > 100 µM
MOLT-4 leukemia
  GI50: > 100 µM
  TGI: > 100 µM
UO-31 renal
  GI50: > 100 µM
  TGI: > 100 µM
HCT-116 colon
  GI50: > 100 µM
  TGI: > 100 µM
SR leukemia
  GI50: > 100 µM
  TGI: > 100 µM
ACHN renal
  GI50: > 100 µM
  TGI: > 100 µM
HCT-15 colon
  GI50: > 100 µM
  TGI: > 100 µM
RXF 393 renal
  GI50: > 100 µM
  TGI: > 100 µM

## COc1ccc2nc(NC(=O)C(=O)C(C#N)c3ccc(CC#N)cc3)sc2c1 (stereo unspecified)
NCI-H23 lung
  TGI: > 100 µM
HT29 colon
  TGI: > 100 µM
MOLT-4 leukemia
  TGI: > 100 µM
UO-31 renal
  TGI: > 100 µM
HL-60(TB) leukemia
  TGI: > 100 µM
HCT-116 colon
  TGI: > 100 µM
ACHN renal
  TGI: > 100 µM
HCT-15 colon
  TGI: > 100 µM
RXF 393 renal
  TGI: > 100 µM

## O=C(c1nc2ccccc2[nH]1)C1C(c2cccc([N+](=O)[O-])c2)C2CC3CCCCC3N2[C@@]12C(=O)Nc1cc(Cl)ccc12 (stereo partly specified)
NCI-H23 lung
  GI50: 2.37 µM
  TGI: 5.89 µM
HT29 colon
  GI50: 1.64 µM
  TGI: 4.35 µM
MOLT-4 leukemia
  GI50: 2.38 µM
  TGI: 10.1 µM
UO-31 renal
  GI50: 1.38 µM
  TGI: 3.16 µM
HL-60(TB) leukemia
  GI50: 2.58 µM
  TGI: 6.67 µM
SR leukemia
  GI50: 2.23 µM
  TGI: 9.25 µM
ACHN renal
  GI50: 2.23 µM
  TGI: 7.2 µM
RXF 393 renal
  GI50: 1.36 µM
  TGI: 2.81 µM

## c1ccc2c(Nc3ccc4c(c3)OCO4)c3ccoc3nc2c1
NCI-H23 lung
  GI50: 10.9 µM
  TGI: 27.3 µM
MOLT-4 leukemia
  GI50: 5.69 µM
  TGI: > 100 µM
UO-31 renal
  GI50: 23.6 µM
  TGI: > 100 µM
HCT-116 colon
  GI50: 14.7 µM
  TGI: 37.3 µM
SR leukemia
  GI50: 3.98 µM
  TGI: 29.3 µM
ACHN renal
  GI50: 20.2 µM
  TGI: 70.3 µM
HCT-15 colon
  GI50: 14.7 µM
  TGI: 45.6 µM
RXF 393 renal
  GI50: 3.53 µM
  TGI: 23.1 µM

## CCOc1c(Cc2ccccc2)c(=O)n2c3ccccc3n3c(=O)n(C)c(=O)c1c23
NCI-H23 lung
  TGI: > 100 µM
HT29 colon
  TGI: > 100 µM
MOLT-4 leukemia
  TGI: > 100 µM
UO-31 renal
  TGI: > 100 µM
HCT-116 colon
  TGI: > 100 µM
SR leukemia
  TGI: > 100 µM
ACHN renal
  TGI: > 100 µM
HCT-15 colon
  TGI: > 100 µM
RXF 393 renal
  TGI: > 100 µM

## N#CCCCCCn1c2ccccc2c2c3c(c4c5ccccc5[nH]c4c21)C(=O)N(O)C3=O
NCI-H23 lung
  GI50: 1.55 µM
  TGI: 5.54 µM
HT29 colon
  GI50: 1.86 µM
  TGI: 4.66 µM
MOLT-4 leukemia
  GI50: 0.37 µM
  TGI: 4.33 µM
HL-60(TB) leukemia
  GI50: 1.48 µM
  TGI: 3.5 µM
HCT-116 colon
  GI50: 0.894 µM
  TGI: 2.37 µM
SR leukemia
  GI50: 0.434 µM
  TGI: > 100 µM
ACHN renal
  GI50: 0.851 µM
  TGI: 2.33 µM
HCT-15 colon
  GI50: 2.15 µM
  TGI: 7.82 µM
RXF 393 renal
  GI50: 1.7 µM
  TGI: 4.69 µM

## CC1(C)CC(=O)C=C(NC(=O)c2ccccc2)C1
NCI-H23 lung
  TGI: > 100 µM
HT29 colon
  TGI: > 100 µM
MOLT-4 leukemia
  TGI: > 100 µM
UO-31 renal
  TGI: > 100 µM
HL-60(TB) leukemia
  TGI: > 100 µM
HCT-116 colon
  TGI: > 100 µM
HCT-15 colon
  TGI: > 100 µM
RXF 393 renal
  TGI: > 100 µM

## CC1CC(=O)CC[C@@H]1OCc1ccccc1 (stereo partly specified)
NCI-H23 lung
  TGI: > 100 µM
HT29 colon
  TGI: > 100 µM
MOLT-4 leukemia
  TGI: > 100 µM
UO-31 renal
  TGI: > 100 µM
HL-60(TB) leukemia
  TGI: > 100 µM
HCT-116 colon
  TGI: > 100 µM
ACHN renal
  TGI: > 100 µM
HCT-15 colon
  TGI: > 100 µM
RXF 393 renal
  TGI: > 100 µM

## Nc1ccc(C(=O)N/C(=C\c2ccc3c(c2)OCO3)c2nc3ccc4c(c3[nH]2)C(=O)c2ccccc2C4=O)cc1
NCI-H23 lung
  TGI: 56.5 µM
HT29 colon
  TGI: > 100 µM
MOLT-4 leukemia
  TGI: > 100 µM
UO-31 renal
  TGI: 18.7 µM
HCT-116 colon
  TGI: > 100 µM
ACHN renal
  TGI: 64.9 µM
HCT-15 colon
  TGI: > 100 µM
RXF 393 renal
  TGI: 42.4 µM
